Literature values, collected in PMC7618104, “The GLP-1 analogue, exendin-4, improves bone material properties and strength through a central relay in ovariectomized mice” (American journal of physiology. Endocrinology and metabolism, 2025).
Ends that are not written are not given here.

Assays:
CNS = details: mouse, in vivo, iv; cited from earlier work
Excerpt: (§1) Taken altogether, these studies might support a brain entry through adsorptive transcytosis across brain endothelial cells. The l ...

osteoblast cultures = details: in vitro study; cited from earlier work
Excerpt: These observations formed the basis for investigating the potential utility of a GLP-1r agonist for the management of bone fragility. Ex-4 has already been administered subcutaneously in preclinical models of bone fragility, including the OVX model used in the present study. Previous studies have reported positive effects of Ex-4 that increased bone mineral density, trabecular microstructure and circulating calcitonin leve ...

humans = details: exogenous GLP-1, humans; cited from earlier work
Excerpt: (§2) Previously, we and others have highlighted the beneficial role of several gut hormones on bone physiology ([5]). Among gut hormones, glucagon-like peptide-1 (GLP-1) was reported to be beneficial for bone strength. Indeed, animals with a genetic impairment of the GLP-1 receptor (GLP-1r) presented with reduced bone mass, deterioration of bone microarchitecture and alterations of bone material properties, especially enzymatic collagen crosslinking, that jeopardized bone strength ([6], [7]). In humans, GLP-1r gene polymorphisms have also been reported to impact bone mineral density and mass ([8]) ...

[1] = system: streptozotocin-induced type 1 diabetes mellitus; details: cited from earlier work
[2] = system: individuals in randomized clinical trials; details: cited from earlier work
Excerpt: as §2

brain = details: in vivo; cited from earlier work
Excerpt: as §1

Substance: [Ser8]GLP-1: radiolabeled [Ser8]GLP-1, a stable analogue of GLP-1 (HSEGTFTSDVSSYLEGQAAKEFIAWLVKGRG; also: radiolabeled; UniProt P01275 98-128, looked up, variant A8S)
- CNS access, inhibition by excess unlabeled peptide or exendin antagonist (CNS): not inhibited by excess doses

Substance: glucagon-like peptide-1 (HAEGTFTSDVSSYLEGQAAKEFIAWLVKGR; ends and bridges not checked; UniProt P01275 98-127, looked up) [GLP-1, gut hormone]
- collagen maturity in vitro (osteoblast cultures): no direct positive effects of GLP-1 on collagen maturity
- bone remodeling (humans): rapidly modulates bone remodeling

Substance: liraglutide
- bone resistance to fracture [1]: able to enhance bone resistance to fracture
- fracture in individuals affected by type 2 diabetes mellitus [2]: contribute to reduce fracture
- brain entry after peripheral administration (brain): reported to enter the brain parenchyma

Substance: lixisenatide
- fracture in individuals affected by type 2 diabetes mellitus [2]: contribute to reduce fracture

Substance: semaglutide
- brain entry after peripheral administration (brain): reported to enter the brain parenchyma
